# Assay results reported in patent US10590140B2, “Tetrahydropyrimidodiazepine and dihydropyridodiazepine compounds for treating pain and pain related conditions” (ESTEVE PHARMACEUTICALS, S.A., priority 2016, dated 2020).
# Read-outs that look alike come from different tables or passages of the source.
# Columns and labels:
# [1] = target: human α2δ-1 subunit of Cav2.2 calcium channel (Homo sapiens (Human), UniProt P54289); assay: Binding assay to human α2δ-1 subunit of Cav2.2 calcium channel ([3H]-Gabapentin); conditions: read-out: Ki (nM) α2δ-1
# Method in brief: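 [3H]-gabapentin binding, 60 min at 27° C; nonspecific binding defined with 10 μM pregabalin. Terminated by filtration on PEI-presoaked GF/C filters, ice-cold 50 mM Tris-HCl pH 7.4 washes, then scintillation counting.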
# [2] = target: human norepinephrine transporter (NET) (Homo sapiens (Human), UniProt P23975); assay: Binding assay to human norepinephrine transporter (NET) ([3H]-Nisoxetin); conditions: Table 2, dual compounds; [3H]-Nisoxetin binding
# Method in brief: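 NET-enriched membranes (5 μg) incubated with 5 nM [3H]-nisoxetin in 50 mM Tris-HCl, 120 mM NaCl, 5 mM KCl, pH 7.4, 60 min at 4 °C. Bound ligand separated by filtration on PEI-soaked GF/C and counted by scintillation; nonspecific binding defined with 1 μM competitor.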
# [3] = Table 2, dual compounds, [3H]-Gabapentin binding
# [4] = binding to α2δ-1, [3H]-Gabapentin
# Chain of human norepinephrine transporter (NET) (P23975 whole entry): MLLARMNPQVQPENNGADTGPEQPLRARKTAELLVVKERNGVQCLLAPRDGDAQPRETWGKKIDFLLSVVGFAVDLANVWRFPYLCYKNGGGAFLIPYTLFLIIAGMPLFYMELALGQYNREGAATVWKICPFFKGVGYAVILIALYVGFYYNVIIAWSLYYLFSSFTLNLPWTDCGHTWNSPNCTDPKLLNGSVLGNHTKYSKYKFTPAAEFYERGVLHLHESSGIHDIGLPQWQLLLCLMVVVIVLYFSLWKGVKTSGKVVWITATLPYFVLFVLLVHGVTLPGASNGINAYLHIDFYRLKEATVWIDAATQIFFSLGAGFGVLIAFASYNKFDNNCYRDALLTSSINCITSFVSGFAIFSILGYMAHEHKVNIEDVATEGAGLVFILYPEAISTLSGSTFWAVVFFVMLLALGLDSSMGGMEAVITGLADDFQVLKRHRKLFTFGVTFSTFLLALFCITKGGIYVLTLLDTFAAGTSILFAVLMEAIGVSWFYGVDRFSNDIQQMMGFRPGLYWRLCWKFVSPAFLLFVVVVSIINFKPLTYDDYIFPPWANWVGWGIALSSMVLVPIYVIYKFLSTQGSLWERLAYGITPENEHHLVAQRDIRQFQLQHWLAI
# Chain of human α2δ-1 subunit of Cav2.2 calcium channel (P54289 25-1103): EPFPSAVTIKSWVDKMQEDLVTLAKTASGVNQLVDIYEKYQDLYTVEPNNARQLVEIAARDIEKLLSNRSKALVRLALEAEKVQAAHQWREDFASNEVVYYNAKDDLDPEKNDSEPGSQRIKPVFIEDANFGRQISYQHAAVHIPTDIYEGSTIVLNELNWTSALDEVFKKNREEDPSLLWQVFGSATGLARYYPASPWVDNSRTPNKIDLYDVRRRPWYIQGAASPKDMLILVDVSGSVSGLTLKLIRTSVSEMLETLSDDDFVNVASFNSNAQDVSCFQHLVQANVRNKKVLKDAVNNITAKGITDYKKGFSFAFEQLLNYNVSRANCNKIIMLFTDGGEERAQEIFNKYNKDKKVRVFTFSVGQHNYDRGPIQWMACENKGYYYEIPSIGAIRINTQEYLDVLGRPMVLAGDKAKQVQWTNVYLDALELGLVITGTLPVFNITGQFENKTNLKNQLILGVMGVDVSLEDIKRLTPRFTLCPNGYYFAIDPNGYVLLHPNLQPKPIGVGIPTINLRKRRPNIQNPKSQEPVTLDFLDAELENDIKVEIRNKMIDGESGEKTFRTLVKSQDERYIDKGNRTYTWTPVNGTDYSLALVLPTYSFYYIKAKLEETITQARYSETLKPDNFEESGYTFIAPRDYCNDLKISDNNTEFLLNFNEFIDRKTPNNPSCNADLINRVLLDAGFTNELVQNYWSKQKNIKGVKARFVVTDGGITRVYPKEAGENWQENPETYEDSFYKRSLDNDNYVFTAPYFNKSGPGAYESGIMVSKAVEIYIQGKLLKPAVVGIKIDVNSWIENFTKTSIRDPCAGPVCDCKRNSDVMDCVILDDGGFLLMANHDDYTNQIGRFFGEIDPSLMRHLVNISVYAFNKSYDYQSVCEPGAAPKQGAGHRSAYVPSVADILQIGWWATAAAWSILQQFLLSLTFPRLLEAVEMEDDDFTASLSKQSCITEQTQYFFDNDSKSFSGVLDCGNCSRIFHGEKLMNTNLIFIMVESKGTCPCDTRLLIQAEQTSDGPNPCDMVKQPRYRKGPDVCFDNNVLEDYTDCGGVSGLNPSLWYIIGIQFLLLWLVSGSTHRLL
SMILES,"Ki [1, 3] [nM]","Ki [1, 4] [nM]",Ki [2] [nM]
"CNCCC(Oc1cccc(N2CCN(C)c3cc(C)ncc3C2=O)c1)c1cccs1 (stereo not drawn) [Example 307, 1,8-dimethyl-4-(3-(3-(methylamino)-1-(thiophen-2-yl)propoxy)phenyl)-1,2,3,4-tetrahydro-5H-pyrido[4,3-e][1,4]diazepin-5-one]",100 to 500,100 to 500,100 to 500
"CNCC[C@H](Oc1ccc(CN2CCN(C)c3cc(C)ncc3C2=O)cc1)c1cccs1 [Example 308, (S)-1,8-dimethyl-4-(4-(3-(methylamino)-1-(thiophen-2-yl)propoxy)benzyl)-1,2,3,4-tetrahydro-5H-pyrido[4,3-e][1,4]diazepin-5-one]",100 to 500,100 to 500,100 to 500
"CNCCC(OCc1ccc(N2CCN(C)c3nc(SC)ncc3C2=O)cc1)c1ccccc1 (stereo not drawn) [Example 315, 9-methyl-6-(4-((3-(methylamino)-1-phenylpropoxy)methyl)phenyl)-2-(methylthio)-6,7,8,9-tetrahydro-5H-pyrimido[4,5-e][1,4]diazepin-5-one]",> 3000,> 3000,< 100
"CNCCC(Oc1ccc(N2CCN(C)c3nc(SC)ncc3C2=O)cc1)c1ccccc1 (stereo not drawn) [Example 316, 9-methyl-6-(4-(3-(methylamino)-1-phenylpropoxy)phenyl)-2-(methylthio)-6,7,8,9-tetrahydro-5H-pyrimido[4,5-e][1,4]diazepin-5-one]",> 3000,> 3000,500 to 1000
"CNCC(OCc1ccc(N2CCN(C)c3nc(SC)ncc3C2=O)cc1)c1ccccc1 (stereo not drawn) [Example 321, 9-methyl-6-(4-((2-(methylamino)-1-phenylethoxy)methyl)phenyl)-2-(methylthio)-6,7,8,9-tetrahydro-5H-pyrimido[4,5-e][1,4]diazepin-5-one]",> 3000,> 3000,< 100
"CNCCC(OCc1cccc(N2CCN(C)c3nc(C(F)(F)F)ncc3C2=O)c1)c1ccccc1 (stereo not drawn) [Example 322, 9-methyl-6-(3-((3-(methylamino)-1-phenylpropoxy)methyl)phenyl)-2-(trifluoromethyl)-6,7,8,9-tetrahydro-5H-pyrimido[4,5-e][1,4]diazepin-5-one]",> 3000,> 3000,100 to 500
"CNCCC(OCc1ccc(N2CCN(C)c3nc(SC)ncc3C2=O)cc1)c1cccs1 (stereo not drawn) [Example 328, 9-methyl-6-(4-((3-(methylamino)-1-(thiophen-2-yl)propoxy)methyl)phenyl)-2-(methylthio)-6,7,8,9-tetrahydro-5H-pyrimido[4,5-e][1,4]diazepin-5-one]",> 3000,> 3000,< 100
"CNCCC(OCc1cccc(N2CCN(C)c3nc(C(F)(F)F)ncc3C2=O)c1)c1cccs1 (stereo not drawn) [Example 330, 9-methyl-6-(3-((3-(methylamino)-1-(thiophen-2-yl)propoxy)methyl)phenyl)-2-(trifluoromethyl)-6,7,8,9-tetrahydro-5H-pyrimido[4,5-e][1,4]diazepin-5-one]",500 to 3000,500 to 3000,100 to 500
"CNCCC(OCc1cccc(N2CCN(C)c3nc(NCc4ccccc4)ncc3C2=O)c1)c1ccccc1 (stereo not drawn) [Example 335, 2-(benzylamino)-9-methyl-6-(3-((3-(methylamino)-1-phenylpropoxy)methyl)phenyl)-6,7,8,9-tetrahydro-5H-pyrimido[4,5-e][1,4]diazepin-5-one]",500 to 3000,500 to 3000,< 100
"CNCCC(OCc1cccc(N2CCN(C)c3nc(N(C)Cc4ccccn4)ncc3C2=O)c1)c1ccccc1 (stereo not drawn) [Example 336, 9-methyl-2-(methyl(pyridin-2-ylmethyl)amino)-6-(3-((3-(methylamino)-1-phenylpropoxy)methyl)phenyl)-6,7,8,9-tetrahydro-5H-pyrimido[4,5-e][1,4]diazepin-5-one]",500 to 3000,500 to 3000,100 to 500
"CCNc1ncc2c(n1)N(C)CCN(c1ccc(COC(CNC)c3ccccc3)cc1)C2=O (stereo not drawn) [Example 340, 2-(ethylamino)-9-methyl-6-(4-((2-(methylamino)-1-phenylethoxy)methyl)phenyl)-6,7,8,9-tetrahydro-5H-pyrimido[4,5-e][1,4]diazepin-5-one]",> 3000,> 3000,< 100
"CNCC[C@@H](OCc1cccc(N2CCN(C)c3nc(N(C)Cc4ccccn4)ncc3C2=O)c1)c1ccccc1 [Example 341, (R)-9-methyl-2-(methyl(pyridin-2-ylmethyl)amino)-6-(3-((3-(methylamino)-1-phenylpropoxy)methyl)phenyl)-6,7,8,9-tetrahydro-5H-pyrimido[4,5-e][1,4]diazepin-5-one]",100 to 500,100 to 500,100 to 500
"CNCC[C@@H](OCc1cccc(N2CCN(C)c3nc(N(C)Cc4cccnc4)ncc3C2=O)c1)c1ccccc1 [Example 342, (R)-9-methyl-2-(methyl(pyridin-3-ylmethyl)amino)-6-(3-((3-(methylamino)-1-phenylpropoxy)methyl)phenyl)-6,7,8,9-tetrahydro-5H-pyrimido[4,5-e][1,4]diazepin-5-one]",100 to 500,100 to 500,100 to 500
"CNCC[C@@H](OCc1cccc(N2CCN(C)c3nc(NCc4ccccn4)ncc3C2=O)c1)c1ccccc1 [Example 343, (R)-9-methyl-6-(3-((3-(methylamino)-1-phenylpropoxy)methyl)phenyl)-2-((pyridin-2-ylmethyl)amino)-6,7,8,9-tetrahydro-5H-pyrimido[4,5-e][1,4]diazepin-5-one]",100 to 500,100 to 500,100 to 500
"CCNc1ncc2c(n1)N(C)CCN(c1ccc(COC(CCNC)c3cccs3)cc1)C2=O (stereo not drawn) [Example 348, 2-(ethylamino)-9-methyl-6-(4-((3-(methylamino)-1-(thiophen-2-yl)propoxy)methyl)phenyl)-6,7,8,9-tetrahydro-5H-pyrimido[4,5-e][1,4]diazepin-5-one]",> 3000,> 3000,100 to 500
"CNCCC(OCc1ccc(N2CCN(C)c3nc(C)ncc3C2=O)cc1)c1ccccc1 (stereo not drawn) [Example 353, 2,9-dimethyl-6-(4-((3-(methylamino)-1-phenylpropoxy)methyl)phenyl)-6,7,8,9-tetrahydro-5H-pyrimido[4,5-e][1,4]diazepin-5-one]",> 3000,> 3000,< 100
"CCc1ncc2c(n1)N(C)CCN(c1cccc(COC(CCNC)c3ccccc3)c1)C2=O (stereo not drawn) [Example 354, 2-ethyl-9-methyl-6-(3-((3-(methylamino)-1-phenylpropoxy)methyl)phenyl)-6,7,8,9-tetrahydro-5H-pyrimido[4,5-e][1,4]diazepin-5-one]",500 to 3000,500 to 3000,100 to 500
"CNCC(OCc1ccc(N2CCN(C)c3nc(C)ncc3C2=O)cc1)c1ccccc1 (stereo not drawn) [Example 355, 2,9-dimethyl-6-(4-((2-(methylamino)-1-phenylethoxy)methyl)phenyl)-6,7,8,9-tetrahydro-5H-pyrimido[4,5-e][1,4]diazepin-5-one]",> 3000,> 3000,< 100
"CCc1ncc2c(n1)N(C)CCN(c1cccc(CO[C@H](CCNC)c3ccccc3)c1)C2=O [Example 356, (R)-2-ethyl-9-methyl-6-(3-((3-(methylamino)-1-phenylpropoxy)methyl)phenyl)-6,7,8,9-tetrahydro-5H-pyrimido[4,5-e][1,4]diazepin-5-one]",500 to 3000,500 to 3000,100 to 500
"CNCCC(Oc1cccc(CN2CCN(C)c3nc(SC)ncc3C2=O)c1)c1ccccc1 (stereo not drawn) [Example 366, 9-methyl-6-(3-(3-(methylamino)-1-phenylpropoxy)benzyl)-2-(methylthio)-6,7,8,9-tetrahydro-5H-pyrimido[4,5-e][1,4]diazepin-5-one]",> 3000,> 3000,500 to 1000
"CNCCC(OCc1cccc(CN2CCN(C)c3nc(SC)ncc3C2=O)c1)c1ccccc1 (stereo not drawn) [Example 367, 9-methyl-6-(3-((3-(methylamino)-1-phenylpropoxy)methyl)benzyl)-2-(methylthio)-6,7,8,9-tetrahydro-5H-pyrimido[4,5-e][1,4]diazepin-5-one]",> 3000,> 3000,100 to 500
"CNCCC(OCc1ccc(CN2CCN(C)c3nc(SC)ncc3C2=O)cc1)c1ccccc1 (stereo not drawn) [Example 368, 9-methyl-6-(4-((3-(methylamino)-1-phenylpropoxy)methyl)benzyl)-2-(methylthio)-6,7,8,9-tetrahydro-5H-pyrimido[4,5-e][1,4]diazepin-5-one]",> 3000,> 3000,100 to 500
"CNCCC(Oc1ccc(CN2CCN(C)c3nc(SC)ncc3C2=O)cc1)c1ccccc1 (stereo not drawn) [Example 369, 9-methyl-6-(4-(3-(methylamino)-1-phenylpropoxy)benzyl)-2-(methylthio)-6,7,8,9-tetrahydro-5H-pyrimido[4,5-e][1,4]diazepin-5-one]",500 to 3000,500 to 3000,< 100
"CNCC(OCc1cccc(CN2CCN(C)c3nc(SC)ncc3C2=O)c1)c1ccccc1 (stereo not drawn) [Example 372, 9-methyl-6-(3-((2-(methylamino)-1-phenylethoxy)methyl)benzyl)-2-(methylthio)-6,7,8,9-tetrahydro-5H-pyrimido[4,5-e][1,4]diazepin-5-one]",> 3000,> 3000,100 to 500
"CNCC(OCc1ccc(CN2CCN(C)c3nc(SC)ncc3C2=O)cc1)c1ccccc1 (stereo not drawn) [Example 374, 9-methyl-6-(4-((2-(methylamino)-1-phenylethoxy)methyl)benzyl)-2-(methylthio)-6,7,8,9-tetrahydro-5H-pyrimido[4,5-e][1,4]diazepin-5-one]",> 3000,> 3000,100 to 500
